From patent publication EP0414533A1, “Use of iodopropargyl esters of alpha-amino acid derivatives as antimicrobial agents” (ROHM AND HAAS COMPANY, priority 1989, dated 1991)
Counter-ions that a name gives are not always drawn. Like-named read-outs stand apart in the source and are kept apart here.

Key:
Type in all cases: cell-based
Botrytis cinerea (BOC) = assay: In-vitro plant fungicide test; conditions: Botrytis cinerea; for inhibition of growth at 0.2 ppm: .2 ppm; for inhibition of growth at 0.4 ppm: .4 ppm; for inhibition of growth at 0.8 ppm: .8 ppm
Fusarium roseum (FUS) = assay: In-vitro plant fungicide test; conditions: Fusarium sambucinum; for inhibition of growth at 1.5 ppm: read-out: % Control at (ppm) indicated FUS, 1.5 ppm; for inhibition of growth at 3 ppm: read-out: % Control at (ppm) indicated FUS, 3 ppm; for inhibition of growth at 6 ppm: read-out: % Control at (ppm) indicated FUS, 6 ppm; for inhibition of growth at 12 ppm: read-out: % Control at (ppm) indicated FUS, 12 ppm; for inhibition of growth at 0.2 ppm: read-out: % Control at (ppm) indicated FUS, .2 ppm; for inhibition of growth at 0.4 ppm: read-out: % Control at (ppm) indicated FUS, .4 ppm; for inhibition of growth at 0.8 ppm: read-out: % Control at (ppm) indicated FUS, .8 ppm
[1] = tested on: Aureobasidium pullulans (APUL); assay: Minimum inhibitory concentration (MIC), broth two-fold serial dilution test; conditions: Aureobasidium pullulans, read-out: MIC (F) APUL, M9G (minimal salts media with glucose); Table IIIc, iodopropargyl esters of peptides
Rhizoctonia solani (RHI) = assay: In-vitro plant fungicide test; conditions: Rhizoctonia solani; for inhibition of growth at 0.2 ppm: .2 ppm; for inhibition of growth at 0.4 ppm: .4 ppm; for inhibition of growth at 0.8 ppm: .8 ppm
ALT = assay: In-vitro plant fungicide test; design: inhibition of growth: concentration or dose not given beside the values; conditions: Table IVb, read-out: % Control at (ppm) indicated ALT; for inhibition of growth at 0.2 ppm: .2 ppm; for inhibition of growth at 0.4 ppm: .4 ppm; for inhibition of growth at 0.8 ppm: .8 ppm
CER = assay: In-vitro plant fungicide test; conditions: Table IVb, read-out: % Control at (ppm) indicated CER; for inhibition of growth at 0.2 ppm: .2 ppm; for inhibition of growth at 0.4 ppm: .4 ppm; for inhibition of growth at 0.8 ppm: .8 ppm
PSH = assay: In-vitro plant fungicide test; conditions: Table IVb, read-out: % Control at (ppm) indicated PSH; for inhibition of growth at 0.2 ppm: .2 ppm; for inhibition of growth at 0.4 ppm: .4 ppm; for inhibition of growth at 0.8 ppm: .8 ppm
7 FUNGI = assay: Microbicides broad spectrum secondary test against 7 fungi (Table V); design: key: 1= no growth; 0= growth of the indicated fungi at dose indicated in ppm; conditions: Mycophile agar, pH 5.0; for ANIG growth: Aspergillus niger; for APUL growth: Aureobasidium pullulans; for CRES growth: Cladosporium resinae; for GTRA growth: Gloeophyllum trabeum; for PFUN growth: Penicillium funiculosum; for RRUB growth: Rhodotorula rubra; for SSER growth: Sacharomyces cerevisiae
Description: In the case of fungi, the spores are harvested by pipetting water onto the slant and dislodging the spores with a sterile loop. The cell/spore suspension is standardized by controlling incubation time, temperature, and the volume of the diluent. The suspension is then used to inoculate the vessels containing the broth compound. […] The results of the minimum inhibitory concentration (MIC) tests of compounds of this invention are shown in Tables IIIa IIIb, IIIc, V, VI, VII, and VIII against the microorganisms shown in Table IX. [table]

[2] = Table IVb, read-out: % Control at (ppm) indicated BOC
[3] = Table IVa, *=Phytotoxic, read-out: % Control at 25 ppm BOC
[4] = read-out: % Control at 25 ppm FUS, 25 ppm, Table IVa, *=Phytotoxic
[5] = read-out: % Control at (ppm) indicated FUS, 25 ppm, Table IVb
[6] = Table IVb, read-out: % Control at (ppm) indicated RHI
[7] = Table IVa, read-out: % Control at 25 ppm RHI

SMILES: C[C@H](N)C(=O)N[C@@H](COCc1ccccc1)C(=O)OCC#CI [Compound 19, L-alanyl-O-benzyl-L-serine iodopropargyl ester trifluoroacetate]
- inhibition of growth at 1.5 ppm (Botrytis cinerea (BOC); [2]): 0%
- inhibition of growth at 6 ppm (Botrytis cinerea (BOC); [2]): 0%
- inhibition of growth at 25 ppm (Botrytis cinerea (BOC); [3]): 0%
- inhibition of growth at 25 ppm (Botrytis cinerea (BOC); [2]): 90%
- inhibition of growth at 0.2 ppm (Botrytis cinerea (BOC); [2]): 0%
- inhibition of growth at 0.4 ppm (Botrytis cinerea (BOC); [2]): 0%
- inhibition of growth at 0.8 ppm (Botrytis cinerea (BOC); [2]): 0%
- inhibition of growth at 25 ppm (Fusarium roseum (FUS); [4]): 100%
- inhibition of growth at 1.5 ppm (Fusarium roseum (FUS); Table IVb): 0%
- inhibition of growth at 3 ppm (Fusarium roseum (FUS); Table IVb): 0%
- inhibition of growth at 6 ppm (Fusarium roseum (FUS); Table IVb): 0%
- inhibition of growth at 12 ppm (Fusarium roseum (FUS); Table IVb): 0%
- inhibition of growth at 25 ppm (Fusarium roseum (FUS); [5]): 0%
- inhibition of growth at 0.2 ppm (Fusarium roseum (FUS); Table IVb): 0%
- inhibition of growth at 0.4 ppm (Fusarium roseum (FUS); Table IVb): 0%
- inhibition of growth at 0.8 ppm (Fusarium roseum (FUS); Table IVb): 0%
- MIC [1]: < 0.8 µg/mL
- inhibition of growth at 1.5 ppm (Rhizoctonia solani (RHI); [6]): 0%
- inhibition of growth at 6 ppm (Rhizoctonia solani (RHI); [6]): 0%
- inhibition of growth at 25 ppm (Rhizoctonia solani (RHI); [7]): 100%
- inhibition of growth at 25 ppm (Rhizoctonia solani (RHI); [6]): 100%
- inhibition of growth at 0.2 ppm (Rhizoctonia solani (RHI); [6]): 0%
- inhibition of growth at 0.4 ppm (Rhizoctonia solani (RHI); [6]): 0%
- inhibition of growth at 0.8 ppm (Rhizoctonia solani (RHI); [6]): 0%
- inhibition of growth at 1.5 ppm (ALT): 0%
- inhibition of growth at 3 ppm (ALT): 50%
- inhibition of growth at 6 ppm (ALT): 75%
- inhibition of growth at 25 ppm (ALT): 100%
- inhibition of growth at 0.2 ppm (ALT): 0%
- inhibition of growth at 0.4 ppm (ALT): 0%
- inhibition of growth at 0.8 ppm (ALT): 0%
- inhibition of growth (ALT): 100%
- inhibition of growth at 1.5 ppm (CER): 0%
- inhibition of growth at 6 ppm (CER): 50%
- inhibition of growth at 25 ppm (CER): 100%
- inhibition of growth at 0.2 ppm (CER): 0%
- inhibition of growth at 0.4 ppm (CER): 0%
- inhibition of growth at 0.8 ppm (CER): 0%
- inhibition of growth at 1.5 ppm (PSH): 50%
- inhibition of growth at 6 ppm (PSH): 100%
- inhibition of growth at 0.2 ppm (PSH): 0%
- inhibition of growth at 0.4 ppm (PSH): 0%
- inhibition of growth at 0.8 ppm (PSH): 0%

SMILES: CC(C)(C)OC(=O)NCC(=O)OCC#CI [Compound 1, N-t-butoxycarbonylglycine iodopropargyl ester]
- inhibition of growth at 1.5 ppm (Botrytis cinerea (BOC); [2]): 0%
- inhibition of growth at 6 ppm (Botrytis cinerea (BOC); [2]): 0%
- inhibition of growth at 25 ppm (Botrytis cinerea (BOC); [3]): 100%
- inhibition of growth at 25 ppm (Botrytis cinerea (BOC); [2]): 100%
- inhibition of growth at 0.2 ppm (Botrytis cinerea (BOC); [2]): 0%
- inhibition of growth at 0.4 ppm (Botrytis cinerea (BOC); [2]): 0%
- inhibition of growth at 0.8 ppm (Botrytis cinerea (BOC); [2]): 0%
- inhibition of growth at 25 ppm (Fusarium roseum (FUS); [4]): 100%
- inhibition of growth at 1.5 ppm (Fusarium roseum (FUS); Table IVb): 0%
- inhibition of growth at 3 ppm (Fusarium roseum (FUS); Table IVb): 75%
- inhibition of growth at 6 ppm (Fusarium roseum (FUS); Table IVb): 100%
- inhibition of growth at 12 ppm (Fusarium roseum (FUS); Table IVb): 100%
- inhibition of growth at 25 ppm (Fusarium roseum (FUS); [5]): 100%
- inhibition of growth at 0.2 ppm (Fusarium roseum (FUS); Table IVb): 0%
- inhibition of growth at 0.4 ppm (Fusarium roseum (FUS); Table IVb): 0%
- inhibition of growth at 0.8 ppm (Fusarium roseum (FUS); Table IVb): 0%
- ANIG growth (7 FUNGI; 0.2 PPM): 0
- ANIG growth (7 FUNGI; 1 PPM): 0
- ANIG growth (7 FUNGI; 5 PPM): 1
- ANIG growth (7 FUNGI; 25 PPM): 1
- APUL growth (7 FUNGI; 0.2 PPM): 0
- APUL growth (7 FUNGI; 1 PPM): 0
- APUL growth (7 FUNGI; 5 PPM): 0
- APUL growth (7 FUNGI; 25 PPM): 1
- CRES growth (7 FUNGI; 0.2 PPM): 0
- CRES growth (7 FUNGI; 1 PPM): 0
- CRES growth (7 FUNGI; 5 PPM): 0
- CRES growth (7 FUNGI; 25 PPM): 1
- GTRA growth (7 FUNGI; 0.2 PPM): 0
- GTRA growth (7 FUNGI; 1 PPM): 1
- GTRA growth (7 FUNGI; 5 PPM): 1
- GTRA growth (7 FUNGI; 25 PPM): 1
- PFUN growth (7 FUNGI; 0.2 PPM): 0
- PFUN growth (7 FUNGI; 1 PPM): 0
- PFUN growth (7 FUNGI; 5 PPM): 0
- PFUN growth (7 FUNGI; 25 PPM): 1
- RRUB growth (7 FUNGI; 0.2 PPM): 0
- RRUB growth (7 FUNGI; 1 PPM): 0
- RRUB growth (7 FUNGI; 5 PPM): 0
- RRUB growth (7 FUNGI; 25 PPM): 1
- SSER growth (7 FUNGI; 0.2 PPM): 0
- SSER growth (7 FUNGI; 1 PPM): 0
- SSER growth (7 FUNGI; 5 PPM): 0
- SSER growth (7 FUNGI; 25 PPM): 1
- inhibition of growth at 1.5 ppm (Rhizoctonia solani (RHI); [6]): 100%
- inhibition of growth at 6 ppm (Rhizoctonia solani (RHI); [6]): 100%
- inhibition of growth at 25 ppm (Rhizoctonia solani (RHI); [7]): 100%
- inhibition of growth at 25 ppm (Rhizoctonia solani (RHI); [6]): 100%
- inhibition of growth at 0.2 ppm (Rhizoctonia solani (RHI); [6]): 0%
- inhibition of growth at 0.4 ppm (Rhizoctonia solani (RHI); [6]): 75%
- inhibition of growth at 0.8 ppm (Rhizoctonia solani (RHI); [6]): 100%
- inhibition of growth at 1.5 ppm (ALT): 0%
- inhibition of growth at 3 ppm (ALT): 50%
- inhibition of growth at 6 ppm (ALT): 50%
- inhibition of growth at 12 ppm (ALT; 12 ppm): 100%
- inhibition of growth at 25 ppm (ALT): 100%
- inhibition of growth at 0.2 ppm (ALT): 0%
- inhibition of growth at 0.4 ppm (ALT): 0%
- inhibition of growth at 0.8 ppm (ALT): 0%
- inhibition of growth at 1.5 ppm (CER): 0%
- inhibition of growth at 6 ppm (CER): 100%
- inhibition of growth at 25 ppm (CER): 100%
- inhibition of growth at 0.2 ppm (CER): 0%
- inhibition of growth at 0.4 ppm (CER): 0%
- inhibition of growth at 0.8 ppm (CER): 0%
- inhibition of growth at 1.5 ppm (PSH): 100%
- inhibition of growth at 6 ppm (PSH): 100%
- inhibition of growth at 25 ppm (PSH; 25 ppm): 100%
- inhibition of growth at 0.2 ppm (PSH): 0%
- inhibition of growth at 0.4 ppm (PSH): 0%
- inhibition of growth at 0.8 ppm (PSH): 75%
